Measurements taken from US9320760B2, “Compositions and methods of use of compounds to increase cancer patient survival time” (BioNumerik Pharmaceuticals, Inc., priority 2008, dated 2016).
Entries after “also recorded” stand apart in the source; their conditions may differ.

Experiments:
breast cancer cell lines = assay: cytotoxicity study in combination with cisplatin, breast cancer cell lines; format: cell-based, human; details: Tavocept in combination with cisplatin vs cisplatin only controls
[1] = biological target: T1, glutathione reductase (GR) (Homo sapiens, UniProt P00390); assay: NADPH oxidation, glutathione reductase (GR) alone; format: biochemical
T1 sequence (P00390 44-522): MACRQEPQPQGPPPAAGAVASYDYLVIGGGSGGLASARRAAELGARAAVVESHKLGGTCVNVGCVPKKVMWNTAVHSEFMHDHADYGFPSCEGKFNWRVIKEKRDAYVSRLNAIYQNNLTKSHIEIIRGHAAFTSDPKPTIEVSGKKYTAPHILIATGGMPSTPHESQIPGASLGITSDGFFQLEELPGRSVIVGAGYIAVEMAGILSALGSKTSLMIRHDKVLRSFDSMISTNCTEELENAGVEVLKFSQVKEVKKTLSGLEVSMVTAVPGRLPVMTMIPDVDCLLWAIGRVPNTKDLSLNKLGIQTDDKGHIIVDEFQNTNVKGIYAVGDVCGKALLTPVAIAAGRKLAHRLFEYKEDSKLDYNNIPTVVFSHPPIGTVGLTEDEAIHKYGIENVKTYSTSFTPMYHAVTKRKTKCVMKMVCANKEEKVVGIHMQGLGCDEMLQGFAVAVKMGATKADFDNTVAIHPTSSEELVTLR
Protocol: (§1) The Formula (I) compound was utilized at a concentration of 0.5 mM.

[2] = tested on: human breast, ovarian and lymphoma cancer cell lines; assay: interference with paclitaxel induced apoptosis (PARP cleavage, Bcl-2 phosphorylation, DNA laddering); format: cell-based; details: in vitro
Source text: (§2) An important element of Tavocept's™ effectiveness as a compound in the treatment of cancer is its selectivity for normal cells versus cancer cells and its inability to interfere with the anti-cancer activity of chemotherapeutic agents.

[3] = biological target: T2, GR + GRX + GSH (coupled glutaredoxin/glutathione/glutathione reductase system) (Homo sapiens, UniProt P35754); assay: NADPH oxidation, coupled GRX/GSH/GR system; format: biochemical
T2 sequence (P35754 1-106): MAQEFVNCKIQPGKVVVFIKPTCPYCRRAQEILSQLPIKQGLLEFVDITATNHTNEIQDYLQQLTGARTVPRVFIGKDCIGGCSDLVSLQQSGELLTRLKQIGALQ
Protocol: as §1

[4] = biological target: T3, Thioredoxin Reductase + Thioredoxin (Bos taurus, UniProt O97680); assay: NADPH oxidation at 340 nm, coupled thioredoxin (TX)/thioredoxin reductase (TXR)/NADPH system; format: biochemical, bovine
T3 sequence (O97680 1-105): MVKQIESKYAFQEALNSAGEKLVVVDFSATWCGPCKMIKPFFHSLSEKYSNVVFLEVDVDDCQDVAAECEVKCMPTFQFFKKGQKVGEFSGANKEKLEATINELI
Protocol: (§3) Biochemistry 21:6628-6633 (1982).
(§4) Data was then collected and plotted in Microsoft Excel. Error calculations, and graphical representations were performed in Microsoft Excel and Kaleidograph (ver. 3.5). Nonlinear data was graphically rendered using Kaleidograph. ANOVA and other statistical analyses were performed using SAS (ver. 8.2). Unless otherwise noted, significance level was set at 0.05, and error bars represent actual experimental standard deviation.
(§5) It should be noted that for the purposes of FIG. 17 only, thioredoxin is labeled TXR and thioredoxin reductase is labeled TRR.
Table 4, below, illustrates that various Formula (I) compounds (i.e., disulfide-containing compounds) of the present invention can serve as alternate substrate inhibitors for the coupled thioredoxin (TX)/thioredoxin reductase (TXR)/NADPH system as measured by the oxidation of NADPH. In Table 4, the Formula (I) compounds were utilized at a concentration of 0.5 mM.

[5] = tested on: non-small cell lung carcinoma (NSCLC) cell lines; assay: cytotoxicity study in combination with chemotherapeutic agents, NSCLC cell lines; format: cell-based, human; details: Tavocept in combination with cisplatin vs cisplatin only controls
[6] = interference with paclitaxel and platinum regimens in animal models; format: in vivo
Source text: as §2

Thioredoxin Reductase = biological target: T4, Thioredoxin Reductase (Bos taurus, UniProt O62768); assay: NADPH oxidation at 340 nm, thioredoxin reductase only; format: biochemical, bovine
T4 sequence (O62768 1-499): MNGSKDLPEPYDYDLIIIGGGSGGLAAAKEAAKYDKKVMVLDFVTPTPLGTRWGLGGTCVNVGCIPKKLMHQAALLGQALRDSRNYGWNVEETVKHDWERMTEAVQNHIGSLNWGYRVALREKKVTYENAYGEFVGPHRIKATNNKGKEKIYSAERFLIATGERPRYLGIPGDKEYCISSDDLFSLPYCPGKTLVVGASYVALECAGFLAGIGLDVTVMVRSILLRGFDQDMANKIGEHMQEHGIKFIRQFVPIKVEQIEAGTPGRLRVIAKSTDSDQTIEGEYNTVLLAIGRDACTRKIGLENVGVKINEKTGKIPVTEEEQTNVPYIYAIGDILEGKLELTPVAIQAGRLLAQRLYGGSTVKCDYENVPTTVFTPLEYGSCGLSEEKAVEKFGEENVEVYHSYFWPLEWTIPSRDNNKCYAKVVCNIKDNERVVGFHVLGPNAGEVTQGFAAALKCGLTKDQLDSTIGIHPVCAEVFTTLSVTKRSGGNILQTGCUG
Protocol: as §3, §4, §5

[7] = tested on: patients with advanced stage (IIIB/IV) non-small cell lung carcinoma (NSCLC), including the adenocarcinoma sub-type; assay: U.S. Phase II NSCLC Clinical Trial (dose-dense docetaxel + cisplatin with or without Tavocept); format: in vivo, human
Protocol: Darbepoetin alfa (200 μg; subcutaneous administration) was administered on day one of the chemotherapy cycle and pegfilgrastim (6 mg subcutaneous administration) was administered on day two of the chemotherapy cycle if the patient's hemoglobin levels were ≦11 g/dL. The aforementioned chemotherapy cycle was repeated every two weeks, for up to a total of six cycles.

whole cells = assay: whole cell mediated disulfide reduction (α-lipoic acid, hydroxyethyldisulfide); format: cell-based; details: treatments with paclitaxel, cisplatin and Tavocept
GR + GSH = biological target: T5, GR + GSH (Homo sapiens, UniProt P00390); assay: NADPH oxidation, GR + GSH; format: biochemical; details: Disulfide 0.5 mM; n = 6
T5 sequence (P00390 44-522): T1 sequence (P00390 44-522)
Protocol: as §1

human cancer cell lines = assay: interference with paclitaxel and platinum induced cytotoxicity; format: cell-based
Source text: as §2

[8] = Disulfide 0.5 mM, minimum of triplicate assays
[9] = FIG. 13, Tavocept arm versus non-Tavocept arm
[10] = FIG. 14, adenocarcinoma patients, Tavocept vs non-Tavocept arm
[11] = FIG. 15, Tavocept arm versus non-Tavocept arm

## O=S(=O)([O-])CCSSCCS(=O)(=O)[O-].[Na+].[Na+] [Tavocept™, disodium 2,2′-dithio-bis-ethane sulfonate]
Breast cancer cell lines
  cell death: increase in cell death
[1]; Disulfide 0.5 mM, n = 6
  NADPH Oxidation, GR: 0.0 ± 0.01 nmol/min/mL
[1]; result in words
  substrate / alternative substrate inhibitor for glutathione reductase: not a substrate
[2]
  interference with paclitaxel induced apoptosis: does not interfere
[3]; Disulfide 0.5 mM, n = 6
  NADPH Oxidation, GR + GRX + GSH: 15.3 ± 1.0 nmol/min/mL
[3]; in the presence of reduced glutathione and glutathione reductase, result in words
  substrate-like activity with glutaredoxin / alternative substrate inhibitor for the coupled GRX/GSH/GR system: exhibits substrate-like activity
[4]; [8]
  NADPH Oxidation, Thioredoxin Reductase + Thioredoxin: 13.1 ± 0.2 nmol/min/mL
[4]; FIG. 17, increasing Tavocept concentration
  NADPH oxidation by TXR in the presence of TX: concentration-dependent increase
[4]; result in words
  oxidation of reduced thioredoxin to oxidized thioredoxin: drives the oxidation
[5]
  cell death: increase in cell death
[6]
  interference with paclitaxel and platinum regimens: did not interfere
Thioredoxin Reductase; [8]
  NADPH Oxidation, Thioredoxin Reductase only: 0.3 ± 0.01 nmol/min/mL
Thioredoxin Reductase; FIG. 17
  NADPH oxidation by TXR in the absence of TX: indistinguishable from background
Thioredoxin Reductase; result in words
  substrate for thioredoxin reductase alone: not thioredoxin reductase alone; also recorded: not for TXR
[7]; FIG. 12, NSCLC incl. adenocarcinoma, Tavocept arm (10.74 months non-Tavocept arm), 95% confidence limit
  median patient survival (time to death): 11.66 months
[7]; FIG. 12, NSCLC incl. adenocarcinoma, Tavocept vs non-Tavocept arm
  hazard ratio, survival: 0.750
[7]; FIG. 12, NSCLC, Tavocept arm versus non-Tavocept arm
  increase in patient survival: 0.92 month
[7]; FIG. 13, Tavocept arm (9.25% non-Tavocept arm), 95% confidence interval
  patient progression-free survival (PFS): 18.7%
[7]; FIG. 13, Tavocept arm (39.5% non-Tavocept arm), 95% confidence interval
  overall patient one-year survival (OS) rate: 50.7%
[7]; [9]
  increase in overall patient one-year survival (OS) rates: 11.2%
  increase in patient progression-free survival (PFS): 9.5%
[7]; FIG. 14, adenocarcinoma patients, Tavocept arm (9.10 months non-Tavocept arm), 95% confidence limit
  median patient survival (time to death), adenocarcinoma: 15.64 months
[7]; FIG. 14, adenocarcinoma patients, Tavocept arm versus non-Tavocept arm
  increase in patient survival, adenocarcinoma: 6.54 months
[7]; FIG. 14, adenocarcinoma patients, Tavocept arm versus non-Tavocept arm, listed as Tavocept
  increase in patient survival, adenocarcinoma: ~6.5 months
[7]; [10]
  hazard ratio, survival, adenocarcinoma: 0.601
  reduction in the patient mortality rate, adenocarcinoma: 40%
[7]; [11]
  reduction in dehydration (Grade 3 and Grade 4 treatment-related adverse events): 50%
  reduction in hypomagnesaemia (Grade 3 and Grade 4 treatment-related adverse events): 100%
  reduction in nausea (Grade 3 and Grade 4 treatment-related adverse events): 38.5%
  reduction in vomiting (Grade 3 and Grade 4 treatment-related adverse events): 71.5%
[7]; adenocarcinoma patients in the Tavocept arm
  increase in median survival time, adenocarcinoma patients: approximately 198 days
Whole cells
  whole cell mediated disulfide reduction: declined
GR + GSH
  NADPH Oxidation, GR + GSH: 2.9 ± 1.6 nmol/min/mL
Human cancer cell lines
  interference with paclitaxel and platinum induced cytotoxicity: did not interfere
